According to paper PMC8277899, “A novel RyR1-selective inhibitor prevents and rescues sudden death in mouse models of malignant hyperthermia and heat stroke” (Nature Communications, 2021):
Several values for one entry are separate records, joined by “and”; a condition that tells them apart may be missing. Equal values may be shown once. Read-outs that look alike come from different tables or passages of the source.

System: soleus muscles from R2509C mice
Test: Muscle force in vitro, soleus from R2509C mice (caffeine and heat contracture, twitch, tetanus)
Assay type: cell-based, mouse
Details: for inhibition at 3 µM: Mus musculus, soleus (WT and R2509C groups)

SMILES: CCCCCCCCn1cc(C(=O)O)c(=O)c2cc3c(cc21)OCO3 [Cpd1, 6,7-(methylenedioxy)-1-octyl-4-quinolone-3-carboxylic acid]
- inhibition at 3 µM (at 100 Hz, read-out: inhibition of tetanic contraction force): 35%
- inhibition at 3 µM (read-out: inhibition of twitch contraction force): 72%
- increase in basal stress in response to caffeine (R2509C soleus, 3 μM Cpd1, caffeine 20 mM): 0.5836 and 0.5932 and 0.4496 and 0.3389 and 0.4718
- effect on caffeine-induced contracture tension (R2509C soleus, pretreatment 3 µM, 20 mM caffeine): decreased
- effect on heat-induced contracture (R2509C soleus, pretreatment 3 µM, 42 °C): significantly reduced
